Counter-ions that a name gives are not always drawn. Like-named read-outs stand apart in the source and are kept apart here.
Tests used:
[1] = system: purified nitrile hydratase from NA40; test: Substrate specificity of the purified nitrile hydratase; type: biochemical, Amycolatopsis NA40; settings: purified enzyme; 3-cyanopyridine = 100
Method: The substrate specificity was determined analogously to Example 2 (1).
1.7 Units of enzyme were added to the reaction mixture (2.0 ml). The reaction mixture contained the respective substrate in 45 mM phosphate buffer (pH 7.0).

[2] = system: NA40 nitrile hydratase (resting NA40 cells); test: Substrate specificity of resting NA40 cells; type: cell-based, Amycolatopsis NA40; settings: resting NA40 cells, 20° C., 10 min; 3-cyanopyridine = 100; substrate concentration per Table 8
Method: (3) For determination of the activity of NA40 with respect to a number of substrates, cells having a dry weight of 0.0388 mg were incubated in the buffer described above. The reaction was started by addition of the appropriate substrate and incubated at 20° C. with shaking for 10 min. The reaction was stopped by addition of 0.2 ml of 2 N HCl and the reaction mixture was briefly centrifuged. The supernatant was analysed by means of HPLC or gas chromatography.

Rhodococcus GF376 = test: Substrate specificity of the Rhodococcus strains; type: cell-based; settings: Rhodococcus GF376; 3-cyanopyridine = 100
Method: (§1) Rhodococcus rhodochrous J1 was cultured for 72 h in the medium described in EP-A 0 307 926. The microorganisms Rhodoccus GF674, GF578, GF270 and GF376 were cultured in the following media at pH 7.0 for up to 96 h:
(§2) Rhodoccus GF674 in a medium comprising yeast extract 1.0 g/l, fructose 5.0 g/l, malt extract 10.0 g/l, acetamide 5.0 g/l, KH2PO4 2.0 g/l, MgSO47H2O 0.5 g/l and CoCl2.6H2O 10.0 mg. Rhodoccus GF578 in a medium containing yeast extract 1.0 g/l, fructose 15.0 g/l, malt extract 10.0 g/l, acetamide 25.0 g/l, KH2PO4 2.0 g/l, MgSO47H2O 0.5 g/l and CoCl2.6H2O 5.0 mg. […] Rhodoccus GF3 76 in a medium containing yeast extract 1.0 g/l, sodium citrate 10.0 g/l, malt extract 15.0 g/l, butyramide 7.5 g/l, KH2PO4 2.0 g/l, MgSO4.7H2O 0.5 g/l and CoCl2.6H2O 15.0 mg.
(§3) The substrate specificity is summarized as relative activity in Table 15.

Rhodococcus GF270 = test: Substrate specificity of the Rhodococcus strains; type: cell-based; settings: Rhodococcus GF270; 3-cyanopyridine = 100
Method: as §1, §2, §3

Rhodococcus GF578 = test: Substrate specificity of the Rhodococcus strains; type: cell-based; settings: Rhodococcus GF578; 3-cyanopyridine = 100
Method: as §1, §2, §3

Rhodococcus GF674 = test: Substrate specificity of the Rhodococcus strains; type: cell-based; settings: Rhodococcus GF674; 3-cyanopyridine = 100
Method: as §1, §2, §3

[3] = system: Rhodococcus rhodochrous J1; test: Substrate specificity of the Rhodococcus strains; type: cell-based; settings: Rhodococcus rhodochrous J1; 3-cyanopyridine = 100
Method: as §1, §3

[4] = system: purified nitrile hydratase from NA40; type: biochemical, Amycolatopsis NA40
Method: The effect of various inhibitors was determined.

Amycolatopsis NA40 [5] = test: Effects of inducers and cofactors on growth and nitrile hydratase activity in the basal medium; type: cell-based
Method: (§4) (1) For determination of the nitrile hydratase activity, a reaction mixture (2 ml) containing 3-cyanopyridine (1.0 M, 1.0 ml), potassium phosphate buffer (pH 7.0, 0.1 M, 0.5 ml) and 0.5 ml of cell suspension were incubated at 20° C. for 30 min with stirring. The reaction was stopped by addition of 0.2 ml of 3 N HCl. After centrifuging briefly, the nicotinamide formed was determined by means of HPLC (Shimadzu SPD 6A system using a C18 column (Develosil ODS-HG-5. […]); eluent: 10 mM KH2PO4/H3PO4 (pH 2.8)/acetonitrile 9:1 (v/v); flow rate: 1 ml/min; the absorption was measured at 230 nm). The specific activity was expressed as µmol of nicotinamide formed/ml/min/OD610 nm.
(§5) The reaction rates of aliphatic nitriles in the enrichment medium (Table 1) with isolated bacteria is summarized in Table 5, the effects of inducers and cofactors in the basal medium (Table 2) is summarized in Table 4 and the activity comparison of Amycolatopsis to Rhodoccus in the basal medium (Table 2) is summarized in Table 6.

Amycolatopsis NA40 [6] = test: Effect of methanol on resting cells of NA40; type: cell-based; settings: for Relative activity: 10 min
Method: The reaction was carried out for 10 min in the presence of 0 20% (v/v) methanol according to Table 13.

Actinomadura spadix 45O1 = test: Conversion rates of aliphatic nitriles using the isolated bacteria (enrichment medium); type: cell-based
Method: a) Various soil samples were inoculated with various nitriles or amides as a C and N source in the enrichment medium according to Table 1 and incubated at 37° C. or 45° C. for 7 10 days. The cultures were then transferred to the same medium and again cultured at 37° C. for 7 10 days. The whole process was repeated 3 times. The cultures were then diluted and plated out in order to obtain individual colonies. The plates were incubated at 37° C. for 5 days. The different colonies were then tested for the desired activity.
[…] as a C and N source for Amycolatopsis NE31 (DSMZ 11616) Actinomadura spadix E3733 and Actinomadura spadix E3736, azelanitrile served as a C and N source for Amycolatopsis NA40 (DSMZ 11617) and Actinomadura spadix 45A32, n-octanenitrile served as a C and N source for Actinomadura spadix 4501 and cyanoacetic acid served as a C and N source for Actinomadura spadix C15.
as §4, §5

[7] = substance added as inducer to basal medium
[8] = substance added as inducer to basal medium, nicotinamide formed from 3-cyanopyridine, 20° C.
[9] = substance added as cofactor to basal medium
[10] = inhibitor 1 mM, without inhibitor = 100

Row | SMILES | Relative activity, Enzyme reaction [1] [%] | Relative activity [2] [%] | relative activity (substrate specificity) (Rhodococcus GF376) [%] | relative activity (substrate specificity) (Rhodococcus GF270) [%] | relative activity (substrate specificity) (Rhodococcus GF578) [%] | relative activity (substrate specificity) (Rhodococcus GF674) [%] | relative activity (substrate specificity) [3] [%] | other results
1 | N#Cc1cccnc1Cl [2-Chloro-3-cyanopyridine] | 90 | 126 | – | – | – | – | – | –
2 | N#Cc1ccccn1 [2-Cyanopyridine] | 221 | 128 | 54.3 | 15.7 | 200 | 308 | 45 | –
3 | O=C(O)c1cc[c]([Hg][Cl])cc1 [4-Chloromercurobenzoic acid] | – | – | – | – | – | – | – | Relative activity ([4]; inhibitor 0.1 mM, without inhibitor = 100): 69%
4 | N#Cc1ccncc1 [4-Cyanopyridine] | 179 | 168 | 79.8 | 55.6 | 167 | 231 | 70 | –
5 | Oc1cccc2cccnc12 [8-Hydroxyquinoline] | – | – | – | – | – | – | – | Relative activity [4]: 110%
6 | CC#N [Acetonitrile] | – | – | 806 | 659 | 347 | 1.49 | 608 | –
7 | N#Cc1ccccc1 [Benzonitrile] | 64 | 51 | 57.2 | 13.4 | 85.1 | 138 | 27 | –
8 | CCCC(N)=O [Butyramide] | – | – | – | – | – | – | – | Growth (OD610 nm) (Amycolatopsis NA40 [5]; [7]): 2.19 OD610 nm; Specific activity (Amycolatopsis NA40 [5]; [7]): 0.88 μmol/ml/min/OD; Total activity (Amycolatopsis NA40 [5]; [8]): 0.19 µmol/mL/min
9 | O.O.O.O.O.O.[Cl-].[Cl-].[Co+2] [CoCl2•6H2O] | – | – | – | – | – | – | – | Growth (OD610 nm) (Amycolatopsis NA40 [5]; [9]): 8.41 OD610 nm; Specific activity (Amycolatopsis NA40 [5]; [9]): 5.68 μmol/ml/min/OD; Total activity (Amycolatopsis NA40 [5]; [9]): 47.8 µmol/mL/min
10 | C/C=C/C(N)=O [Crotonamide] | – | – | – | – | – | – | – | Growth (OD610 nm) (Amycolatopsis NA40 [5]; [7]): 3.41 OD610 nm; Specific activity (Amycolatopsis NA40 [5]; [7]): 6.72 μmol/ml/min/OD; Total activity (Amycolatopsis NA40 [5]; [8]): 22.9 µmol/mL/min
11 | CC=CC#N [Crotononitrile] | 67 | 52 | 110 | 37.1 | 124 | 98.0 | 78.2 | –
12 | CCN(CC)C(=S)S [Diethyl dithiocarbamate] | – | – | – | – | – | – | – | Relative activity [4, 10]: 89%
13 | O=C(O)CN(CCN(CC(=O)O)CC(=O)O)CC(=O)O [EDTA, ethylenediaminetetra-acetic acid] | – | – | – | – | – | – | – | Relative activity [4]: 115%
14 | O.O.O.O.O.O.O.O=S(=O)([O-])[O-].[Fe+2] [FeSO4•7H2O] | – | – | – | – | – | – | – | Growth (OD610 nm) (Amycolatopsis NA40 [5]; [9]): 8.32 OD610 nm; Specific activity (Amycolatopsis NA40 [5]; [9]): 0.40 μmol/ml/min/OD; Total activity (Amycolatopsis NA40 [5]; [9]): 3.36 µmol/mL/min
15 | NO [Hydroxylamine] | – | – | – | – | – | – | – | Relative activity [4, 10]: 37%
16 | O=C(O)CI [Iodoacetic acid] | – | – | – | – | – | – | – | Relative activity [4]: 39%
17 | C=C(C)C(N)=O [Methacrylamide] | – | – | – | – | – | – | – | Growth (OD610 nm) (Amycolatopsis NA40 [5]; [7]): 3.33 OD610 nm; Specific activity (Amycolatopsis NA40 [5]; [7]): 0.74 μmol/ml/min/OD; Total activity (Amycolatopsis NA40 [5]; [8]): 2.46 µmol/mL/min

Row | SMILES | Relative activity, Enzyme reaction [1] [%] | Relative activity [2] [%] | relative activity (substrate specificity) (Rhodococcus GF376) [%] | relative activity (substrate specificity) (Rhodococcus GF270) [%] | relative activity (substrate specificity) (Rhodococcus GF578) [%] | relative activity (substrate specificity) (Rhodococcus GF674) [%] | relative activity (substrate specificity) [3] [%] | other results
18 | C=C(C)C#N [Methacrylonitrile] | 125 | 130 | 0 | 0 | 122 | 176 | 86.9 | –
19 | CCN1C(=O)C=CC1=O [N-ethylmaleimide] | – | – | – | – | – | – | – | Relative activity [4, 10]: 97%
20 | NNc1ccccc1 [Phenylhydrazine] | – | – | – | – | – | – | – | Relative activity [4, 10]: 8%
21 | CCC(N)=O [Propionamide] | – | – | – | – | – | – | – | Growth (OD610 nm) (Amycolatopsis NA40 [5]; [7]): 1.91 OD610 nm; Specific activity (Amycolatopsis NA40 [5]; [7]): 0.48 μmol/ml/min/OD; Total activity (Amycolatopsis NA40 [5]; [8]): 0.92 µmol/mL/min
22 | CCC#N [Propionitrile] | 222 | 105 | 245 | 37.3 | 132 | 274 | 434 | –
23 | NNC(N)=O [Semicarbazide] | – | – | – | – | – | – | – | Relative activity [4, 10]: 82%
24 | O=S(=O)(O)c1cc(O)c(O)c(S(=O)(=O)O)c1 [Tiron, disodium salt of 4,5-dihydroxy-1,3-benzene-disulphonic acid] | – | – | – | – | – | – | – | Relative activity [4, 10]: 110%
25 | NC(N)=O [Urea] | – | – | – | – | – | – | – | Growth (OD610 nm) (Amycolatopsis NA40 [5]; [7]): 1.72 OD610 nm; Specific activity (Amycolatopsis NA40 [5]; [7]): 1.73 μmol/ml/min/OD; Total activity (Amycolatopsis NA40 [5]; [8]): 2.97 µmol/mL/min
26 | N#Cc1cccc(Cl)c1 [m-Chlorobenzonitrile] | 90 | 75 | 8.63 | 8.41 | 28.9 | 27.8 | 43 | –
27 | CO [methanol] | – | – | – | – | – | – | – | activity of resting NA40 cells (Amycolatopsis NA40 [6]; addition of 5 15% methanol): increased; Relative activity (Amycolatopsis NA40 [6]; methanol 5 % (v/v), 0 % = 100): 123%; Relative activity (Amycolatopsis NA40 [6]; methanol 10 % (v/v)): 128%; Relative activity (Amycolatopsis NA40 [6]; methanol 15 % (v/v)): 130%; Relative activity (Amycolatopsis NA40 [6]; methanol 20 % (v/v)): 105%
28 | CCCC#N [n-Butyronitrile] | 101 | 194 | 195 | 181 | 368 | 491 | 352 | –
29 | CCCCCCCC#N [n-octanenitrile] | – | – | – | – | – | – | – | Specific activity (Actinomadura spadix 45O1; strain 45O1): 4.45 μmol/ml/min/OD; Total activity (Actinomadura spadix 45O1; strain 45O1): 32.2 µmol/mL/min; Growth (OD610 nm) (Actinomadura spadix 45O1; strain 45O1, nitrile as substrate in enrichment medium): 7.24 OD610 nm
30 | N#Cc1ccccc1Cl [o-Chlorobenzonitrile] | 127 | 96 | 0 | 0 | 49.0 | 64.8 | 2.8 | –
31 | c1cnc2c(c1)ccc1cccnc12 [o-Phenanthroline] | – | – | – | – | – | – | – | Relative activity [4, 10]: 89%
32 | c1ccc(-c2ccccn2)nc1 [α,α′-Dipyridyl] | – | – | – | – | – | – | – | Relative activity [4, 10]: 100%
33 | O=C1CCCCCN1 [ε-Caprolactam] | – | – | – | – | – | – | – | Growth (OD610 nm) (Amycolatopsis NA40 [5]; [7]): 0.66 OD610 nm; Specific activity (Amycolatopsis NA40 [5]; [7]): 14.5 μmol/ml/min/OD; Total activity (Amycolatopsis NA40 [5]; [8]): 9.52 µmol/mL/min
